Laboratory results taken from article PMC11758220, “Identification of a Privileged Scaffold for Inhibition of Sterol Transport Proteins through the Synthesis and Ring Distortion of Diverse, Pseudo-Natural Products” (ACS Central Science, 2025).

Experiments:
[1] = target: T1, STARD5 (Homo sapiens, UniProt Q9NSY2); assay: Differential scanning fluorimetry (DSF), STARD5; assay type: binding; settings: for ΔTm at 10 µM / STARD5 (DSF) ΔTm: single dose, Dose = 10 µM; for Kd: apparent Kd, mean of three experiments run in technical duplicates, read-out: STARD5 Kd,app (DSF); for STARD5 (DSF) ΔTmmax: maximal thermal shift
T1 construct: STARD5(6-213); host or cells: E. coli BL21(DE3)
T1 sequence (Q9NSY2 6-213): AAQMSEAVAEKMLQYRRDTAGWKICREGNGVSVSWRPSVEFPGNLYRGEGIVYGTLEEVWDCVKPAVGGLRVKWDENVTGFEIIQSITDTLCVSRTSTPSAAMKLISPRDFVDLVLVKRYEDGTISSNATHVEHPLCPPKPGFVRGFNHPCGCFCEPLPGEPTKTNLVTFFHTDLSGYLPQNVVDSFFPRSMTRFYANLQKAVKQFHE
Description: (§1) Protein expression constructs
(§2) Human ASTER domains of Aster-A(359-547), -B(364-552) and -C(318-504) were subcloned into a pGEX-6p-2rbs vector, thus introducing the cloning artifact ‘GPLGS’.3 The pGEX-6P-1-GST-OSBP(377- […]
(§3) a gift from James H. Hurley (University of California).4 The pHIS_2His6_Thrombin_STARD4(2-205;C75S) plasmid was a gift from Young Jun Im (Chonnam National University).5 STARD5A was a gift from Nicola Burgess-Brown (Addgene plasmid #42392; http://n2t.net/addgene:42392; […]
(§4) Protein expression and purification […]
(§5) vectors including an N-terminal PreScission-cleavable glutathione S-transferase (GST)-tag were expressed in Escherichia coli (E. coli) OverExpress C41 in Terrific Broth (TB) medium for 16 h at 18 °C after the induction with 0.1 mM isopropyl β-D-1-thiogalactopyranoside (IPTG). Cells were harvested at 3500 × g for 15 minutes and lysed by sonication in buffer containing 50 mM HEPES pH 7.5, 300 mM NaCl, 10 %v/v glycerol, 5 mM dithiothreitol (DTT), 0.1 %v/v Triton X-100 and protease inhibitor mix HP plus (Serva). The lysate was purified by affinity chromatography on a GSTrap FF column (Cytiva) using an ÄKTA Start (Cytiva) in buffer containing 50 mM HEPES pH 7.5, 300 mM NaCl, 10 %v/v glycerol, 5 mM DTT and 0.01 %v/v Triton X-100. The GST-tag was cleaved overnight on the column at 4 °C. The Aster sterol binding domains were further purified by size-exclusion chromatography (SEC) on a HiLoad 16/600 Superdex 75 pg (Cytiva) in buffer containing 20 mM HEPES pH 7.5, 300 mM NaCl, 10 %v/v […]
(§6) STARD5(6-213) harboring an N-terminal His6-Tag were expressed in E. coli BL21(DE3) in Luria-Bertani Broth (LB) medium for approximately 16 h at 18 °C after induction with 0.15 mM IPTG. Cells were harvested at 3500 × g for 15 minutes and lysed by sonication in buffer containing 50 mM HEPES pH 7.5, 150 mM NaCl, 5 %v/v glycerol, 5 mM DTT, 0.1 %v/v Triton X -100 and ethylenediaminetetraacetic acid (EDTA)-free protease inhibitor cocktail (Sigma-Aldrich). The cleared lysate was purified by affinity chromatography on a Ni-NTA Superflow Cartridge (Qiagen) using an ÄKTA Start (Cytiva) in buffer containing 50 mM HEPES pH 7.5, 150 mM NaCl, 5 %v/v glycerol, 5 mM DTT. START domains were eluted by using elution buffer containing 50 mM HEPES pH 7.5, 150 mM NaCl, 5 %v/v glycerol, 5 mM DTT and 500 mM imidazole. Proteins were further purified by SEC on a HiLoad 16/600 Superdex 75 pg (Cytiva) in buffer containing 20 mM HEPES pH 7.5, 150 mM NaCl, 5 %v/v glycerol and 2 mM DTT.
(§7) The ORP domain of human OSBP(377-807) in the pGEX-6p-1 vector with an N-terminal PreScission-cleavable GST-tag was expressed in E. coli OverExpress C41 in LB medium for 16 h at 18 °C after induction with 0.1 mM IPTG. Cells were harvested at 3500 × g for 15 minutes and lysed by sonication in buffer containing 20 mM HEPES pH 7.5, 300 mM NaCl, 10 %v/v glycerol, 5 mM DTT, 0.1 %v/v Triton X-100 and EDTA-free protease inhibitor cocktail (Sigma-Aldrich). The cleared lysate was purified by affinity chromatography on a GSTrap HF column (Cytiva) using an ÄKTA Start (Cytiva) in buffer containing 20 mM HEPES pH 7.5, 300 mM NaCl, 10 %v/v glycerol, 5 mM DTT. OSBP(377 -807) was eluted by using elution buffer containing 20 mM HEPES pH 7.5, 300 mM NaCl, 10 %v/v glycerol, 5 mM DTT and 10 mM reduced glutathione. Proteins were further purified by SEC on a HiLoad 16/600 Superdex 75 pg (Cytiva) using an ÄKTA Explorer (Cytiva) in buffer containing 20 mM HEPES pH 7.5, 150 mM NaCl, 10 %v/v glycerol and 2 mM DTT.
(§8) The ORP domains of human ORP1(534-950) in pET24b(+) and ORP2(49-480) in the pET24b(+) vector including an N-terminal His6-Tag were expressed in E. coli BL21(DE3) in TB medium for approximately 16 h at 18 °C after induction with 0.1 mM IPTG. Cells were collected at 3500 × g for 15 minutes and lysed by sonification in buffer containing 10 mM Tris-HCl pH 8, 300 mM NaCl, 5 % glycerol, 2 mM DTT, 0.1 % Triton X-100 and EDTA-free protease inhibitor cocktail (Sigma-Aldrich). The cleared […]

[2] = target: T2, ORP2 (Homo sapiens, UniProt Q9H1P3); assay: Fluorescence polarisation (FP) competition with NBD-cholesterol, ORP2; assay type: binding; settings: for IC50: mean of three experiments run in technical duplicates; for inhibition at 10 µM / ORP2 (FP) inhibition: single dose, Dose = 10 µM
T2 construct: ORP2(49-480); host or cells: E. coli BL21(DE3)
T2 sequence (Q9H1P3 49-480): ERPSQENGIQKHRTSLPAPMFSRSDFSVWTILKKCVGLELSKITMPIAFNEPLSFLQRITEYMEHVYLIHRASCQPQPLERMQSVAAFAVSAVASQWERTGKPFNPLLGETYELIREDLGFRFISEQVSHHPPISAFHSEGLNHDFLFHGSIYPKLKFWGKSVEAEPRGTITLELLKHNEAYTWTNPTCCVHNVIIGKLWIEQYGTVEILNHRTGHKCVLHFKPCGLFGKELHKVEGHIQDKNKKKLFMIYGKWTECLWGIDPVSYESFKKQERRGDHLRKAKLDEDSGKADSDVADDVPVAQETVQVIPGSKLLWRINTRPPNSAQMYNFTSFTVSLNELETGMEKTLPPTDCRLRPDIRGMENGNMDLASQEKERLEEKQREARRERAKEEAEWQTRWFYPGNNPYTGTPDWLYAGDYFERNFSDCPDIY
Description: as §1, §2, §3, §4, §5, §6, §7, §8

Compound	ΔTm at 10 µM [1] [°C]	IC50 [2] [µM]	inhibition at 10 µM [2] [%]	Kd [1] [µM]	STARD5 (DSF) ΔTmmax [1] [°C]	STARD5 (DSF) ΔTm [1] [°C]	ORP2 (FP) inhibition [2] [%]	ΔTm at 100 µM ([1]; at 100 μM, read-out: STARD5 ΔTm^max) [°C]
C[C@]12CC[C@@H]3C[C@H]1CC[C@@]21C(=Nc2ccc(Br)cc21)O3 (racemic) [Compound 15b]	0.5	7.14	29	–	–	–	–	–
CC12CCC3CC1CCC21C(=Nc2ccc(N4CCOCC4)cc21)O3 (racemic) [Compound 19a]	1.8	> 80	27	> 30	3.7	–	–	–
CC12CCC3CC1CCC21C(=Nc2ccc(Br)cc21)O3 (single isomer, unassigned; (+)) [(+)-15b]	-0.0628	> 80	35	> 100	1.1	–	–	–
CC12CCC3CC1CCC21C(=Nc2ccc(N4CCOCC4)cc21)O3 (single isomer, unassigned; (+)) [(+)-19a]	–	> 80	–	> 100	1.7	0.32	7	–
CC12CCC3CC1CCC21C(=Nc2ccc(N4CCOCC4)cc21)O3 (single isomer, unassigned; (-)) [(−)-19a]	–	> 50	–	> 30	5.2	3.3	32	4.7
C[C@@]12CC[C@H]3C[C@@H]1CC[C@]21C(=Nc2ccc(Br)cc21)O3 [(−)-15b]	0.4	5.85	60	> 100	1.3	–	–	–
CC(C)Oc1ccc(C(=O)Nc2nc3c(s2)CN(C(=O)OC(C)(C)C)CC3)cc1 [Autogramin-2, reference compound]	–	6.83	–	> 30	–	0.211	18	–
Cc1c2c(nc3ccccc13)[C@@]1(C)CC[C@@H](O)C[C@H]1CC2 [Compound 2a]	0.4	–	43.5	–	–	–	–	–
C[C@]12CC[C@@H](O)C[C@H]1CCc1c2nc2ccccc2c1-c1ccccc1 [Compound 2b]	–	–	–	–	–	0.0879	14	–
Cc1c2c(nc3cc(Br)ccc13)[C@@]1(C)CC[C@@H](O)C[C@H]1CC2 [Compound 2c]	–	–	–	–	–	0.543	53	–
C[C@]12CC[C@@H](O)C[C@H]1CCc1c2nc2ccccc2c1-c1ccc(F)cc1 [Compound 2d]	0.0936	–	14	–	–	–	–	–
C[C@]12CC[C@@H](O)C[C@H]1CCc1c2nc2ccc(Cl)cc2c1-c1ccccc1 [Compound 2e]	–	–	–	–	–	0.221	15	–
C[C@]12CC[C@@H](O)C[C@H]1CCc1c2[nH]c2ncccc12 [Compound 3]	0.149	–	2	–	–	–	–	–
C[C@]12CC[C@@H](O)C[C@H]1CCC[C@]21Nc2ccccc2-n2cccc21 [Compound 4]	0.138	–	12	–	–	0.276	25	–
C[C@]12CC[C@@H](O)C[C@H]1CCC[C@]21NC(=O)c2ccccc2N1 [Compound 5a]	0.0253	–	6	–	–	0.0773	11	–
C[C@]12CC[C@@H](O)C[C@H]1CCC[C@]21NC(=O)c2ccc(F)cc2N1 [Compound 5b]	-0.128	–	7	–	–	0.158	2	–
COc1ccc2c(c1)C(=O)N[C@]1(CCC[C@@H]3C[C@H](O)CC[C@@]31C)N2 [Compound 5c]	0.117	–	24	–	–	0.0259	12	–
C[C@]12CC[C@@H](O)C[C@H]1CCc1nc3ccccc3nc12 [Compound 7a]	0.5	–	55	–	–	–	–	–
Cc1cc2nc3c(nc2cc1C)[C@@]1(C)CC[C@@H](O)C[C@H]1CC3 [Compound 7b]	0.328	–	12	–	–	–	–	–
C[C@]12CC[C@@H](O)C[C@H]1CCc1nc3cc(F)c(F)cc3nc12 [Compound 7c]	–	–	–	–	–	0.3	9	–
C[C@]12CC[C@@H](O)C[C@H]1CCc1nc3cc(Cl)c(Cl)cc3nc12 [Compound 7d]	–	–	–	–	–	-0.24	12	–
C[C@]12CC[C@@H](O)C[C@H]1CCc1nc3cc(Br)c(Br)cc3nc12 [Compound 7e]	–	–	–	–	–	0.245	27	–
C[C@]12CC[C@@H](O)C[C@H]1CCc1sc(N)nc12 [Compound 8a]	0.0867	–	11	–	–	–	–	–
Cc1nc2c(s1)CC[C@@H]1C[C@H](O)CC[C@]21C [Compound 8b]	–	–	–	–	–	0.175	13	–
C[C@]12CC[C@@H](O)C[C@H]1CCc1sc(-c3cccnc3)nc12 [Compound 8c]	–	–	–	–	–	0.15	17	–
COc1ccc(-c2nc3c(s2)CC[C@@H]2C[C@H](O)CC[C@]32C)cc1 [Compound 8d]	0.146	–	38	–	–	–	–	–
C[C@]12CC[C@@H](O)C[C@H]1CCc1sc(-c3ccc(F)cc3)nc12 [Compound 8e]	–	–	–	–	–	0.216	25	–
C[C@]12CC[C@@H](O)C[C@H]1CCc1[nH]c(-c3ccccc3)nc12 [Compound 9]	0.168	–	3.5	–	–	–	–	–
C[C@]12CC[C@@H](O)C[C@H]1CCc1c2[nH]c2ccccc12 [Compound 10a]	–	–	–	–	–	0.373	34	–
